Experimental data from PMC10139140, “Synthesis of Novel 2-(Cyclopentylamino)thiazol-4(5H)-one Derivatives with Potential Anticancer, Antioxidant, and 11β-HSD Inhibitory Activities” (International Journal of Molecular Sciences, 2023).

Key:
11β-HSD1 = biological target: T1, 11β-HSD1 (Homo sapiens, UniProt P28845); assay: Inhibition of 11β-HSD1 (cortisone to cortisol, human liver microsomes, cortisol ELISA); assay type: biochemical; settings: for inhibition at 10 µM: 2.5 h, 37 °C
T1 construct: Human liver microsomes were used as a source of 11β-HSD1 enzyme; tissue XenoTech Lot No. 1410013; host or cells: pooled human liver microsomes, mixed gender
How it was run: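 Human liver microsomal conversion of cortisone to cortisol, incubated 2.5 h at 37 °C and stopped with 18β-glycyrrhetinic acid. Cortisol was quantified by ELISA against inhibitor-free controls.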

11β-HSD2 = biological target: T2, 11β-HSD2 (Homo sapiens, UniProt P80365); assay: Inhibition of 11β-HSD2 (cortisol to cortisone, human microsomes, cortisol ELISA); assay type: biochemical; settings: 2.5 h, 37 °C
T2 construct: Human liver microsomes were used as a source of 11β-HSD2 enzyme; tissue XenoTech Lot No. 1710160; host or cells: human kidney microsomes, mixed gender (method text says human liver microsomes)
T2 sequence (P80365 1-405): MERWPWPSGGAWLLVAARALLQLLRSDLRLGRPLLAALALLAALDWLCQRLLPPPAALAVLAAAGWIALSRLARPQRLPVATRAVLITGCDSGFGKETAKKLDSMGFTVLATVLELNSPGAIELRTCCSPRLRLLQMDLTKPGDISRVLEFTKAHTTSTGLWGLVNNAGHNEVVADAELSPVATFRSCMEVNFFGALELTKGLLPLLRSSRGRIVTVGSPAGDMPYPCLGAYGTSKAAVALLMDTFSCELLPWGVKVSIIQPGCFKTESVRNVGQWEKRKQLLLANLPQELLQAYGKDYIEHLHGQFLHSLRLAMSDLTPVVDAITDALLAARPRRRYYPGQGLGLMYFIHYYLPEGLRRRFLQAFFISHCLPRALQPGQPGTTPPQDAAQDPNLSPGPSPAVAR
Experimental: The resulting solution with a final volume of 100 µL was incubated for 2.5 h at 37 °C. […] The level of unreacted cortisol was measured by a commercially available ELISA kit.

BJ cells = assay: MTS metabolic activity assay, BJ cells; assay type: cell-based; settings: Homo sapiens, 72 h, read-out: Cell metabolic activity (MTS), % of untreated control
Experimental: (§1) The BJ (CRL-2522), Caco-2 (HTB-37), PANC-1 (CRL-1469), U-118 MG (HTB-15), SK-MEL-30 (ACC 151), and MDA-MB-231 (HTB-26) cell lines were purchased from ATCC (Manassas, VA, USA) or DSMZ (Braunschweig, GERMANY). Cells were cultured in accordance with manufacturers' recommendations in a DMEM, MEM, or RPMI-1640 (Sigma, Saint Louis, MO, USA; Gibco, Waltham, MA, USA), supplemented with 10% FBS, except for Caco-2 (20%) (Thermo Fisher Scientific, Waltham, MA, USA) and 1% antibiotic mix solution (penicillin, streptomycin; Thermo Fisher Scientific, Waltham, MA, USA) in a humidified atmosphere with 5% CO2 at 37 °C. All cell lines were cultured in T75 cell culture flasks or cell culture dishes to reach 80–90% confluency and seeded at a standard density of 5 × 10^3 cells/0.32 cm^2, except for BJ cells at 2 × 10^3 cells/0.32 cm^2.
(§2) The MTS ((MTS: 3-(4,5-dimethylthiazol-2-yl)-5-(3-carboxymethoxyphenyl)-2-(4-sulfophenyl)-2H-tetrazolium)) assay was performed following previously reported method. Briefly, cells were seeded at a standard density into 96-well flat-bottom plates and incubated for 24 h, followed by the treatment. The various concentrations of compounds were prepared and treated for the next 72 h. MTS solution was added for 3h and incubated at standard conditions, protected from light. Finally, the absorbance was read at […] and 620 nm wavelengths using a Synergy H1 microplate reader (BioTek, Santa Clara, CA, USA). The results are presented as %, while untreated control cells were considered 100%.

[1] = tested on: human colon carcinoma (Caco-2); assay: MTS metabolic activity assay, Caco-2 cells; assay type: cell-based; settings: Homo sapiens, 72 h, read-out: Cell metabolic activity (MTS), % of untreated control; for viability at 10 µM: Caco-2, 10 µM; for viability at 20 µM: Caco-2, 20 µM; for viability at 50 µM: Caco-2, 50 µM; for viability at 100 µM: Caco-2, 100 µM; for viability at 200 µM: Caco-2, 200 µM; for viability at 300 µM: Caco-2, 300 µM; for viability at 500 µM: Caco-2, 500 µM
Experimental: as §1, §2

[2] = tested on: human pancreatic carcinoma (PANC-1); assay: MTS metabolic activity assay, PANC-1 cells; assay type: cell-based; settings: for viability at 10 µM / viability at 20 µM / viability at 50 µM / viability at 100 µM / viability at 200 µM / viability at 300 µM / viability at 500 µM: Homo sapiens, 72 h, read-out: Cell metabolic activity (MTS), % of untreated control; for viability at 10 µM: PANC-1, 10 µM; for viability at 20 µM: PANC-1, 20 µM; for viability at 50 µM: PANC-1, 50 µM; for viability at 100 µM: PANC-1, 100 µM; for viability at 200 µM: PANC-1, 200 µM; for viability at 300 µM: PANC-1, 300 µM; for viability at 500 µM: PANC-1, 500 µM
Experimental: as §1, §2

glioma (U-118 MG) = assay: MTS metabolic activity assay, U-118 MG cells; assay type: cell-based; settings: 72 h; for viability at 10 µM / viability at 20 µM / viability at 50 µM / viability at 100 µM / viability at 200 µM / viability at 300 µM / viability at 500 µM: Homo sapiens, U-118-MG, U118-MG, read-out: Cell metabolic activity (MTS), % of untreated control
Experimental: as §1, §2

[3] = tested on: skin melanoma (SK-MEL-30); assay: MTS metabolic activity assay, SK-MEL-30 cells; assay type: cell-based; settings: 72 h; for viability at 10 µM / viability at 20 µM / viability at 50 µM / viability at 100 µM / viability at 200 µM / viability at 300 µM / viability at 500 µM: Homo sapiens, read-out: Cell metabolic activity (MTS), % of untreated control; for viability at 10 µM: SK-MEL-30, 10 µM; for viability at 20 µM: SK-MEL-30, 20 µM; for viability at 50 µM: SK-MEL-30, 50 µM; for viability at 100 µM: SK-MEL-30, 100 µM; for viability at 200 µM: SK-MEL-30, 200 µM; for viability at 300 µM: SK-MEL-30, 300 µM; for viability at 500 µM: SK-MEL-30, 500 µM
Experimental: as §1, §2

[4] = tested on: human breast carcinoma (MDA-MB-231); assay: MTS metabolic activity assay, MDA-MB-231 cells; assay type: cell-based; settings: Homo sapiens, 72 h, read-out: Cell metabolic activity (MTS), % of untreated control; for viability at 10 µM: MDA-MB-231, 10 µM; for viability at 20 µM: MDA-MB-231, 20 µM; for viability at 50 µM: MDA-MB-231, 50 µM; for viability at 100 µM: MDA-MB-231, 100 µM; for viability at 200 µM: MDA-MB-231, 200 µM; for viability at 300 µM: MDA-MB-231, 300 µM; for viability at 500 µM: MDA-MB-231, 500 µM
Experimental: as §1, §2

T1 sequence (P28845 whole entry): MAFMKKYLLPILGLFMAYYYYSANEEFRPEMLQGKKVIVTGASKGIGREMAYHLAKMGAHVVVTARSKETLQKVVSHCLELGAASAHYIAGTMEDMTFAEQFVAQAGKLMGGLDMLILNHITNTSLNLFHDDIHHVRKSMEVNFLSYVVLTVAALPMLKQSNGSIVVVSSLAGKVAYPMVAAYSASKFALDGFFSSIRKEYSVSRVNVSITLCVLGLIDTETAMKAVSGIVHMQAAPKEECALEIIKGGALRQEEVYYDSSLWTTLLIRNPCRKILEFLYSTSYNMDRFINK

Work on `CC1(C)SC(NC2CCCC2)=NC1=O` [Compound 3e, 2-(cyclopentylamino)-5,5-dimethylthiazol-4(5H)-one] yielded an IC50 (11β-HSD1) of 4400 ± 150 nM, an inhibition at 10 µM (11β-HSD1) of 53.2 ± 5.22% and an inhibition at 10 µM (11β-HSD2) of 36.6 ± 1.5%. It also gave a viability at 10 µM (BJ cells) of 107%, a viability at 20 µM (BJ cells) of 109% and a viability at 50 µM (BJ cells) of 112%. It also gave a viability at 100 µM (BJ cells) of 114%, a viability at 200 µM (BJ cells) of 117% and a viability at 300 µM (BJ cells) of 119%. For the same compound, the viability at 500 µM (BJ cells) was 108%, the viability at 10 µM [1] was 99.9% and the viability at 20 µM [1] was 86.5%. For the same compound, the viability at 50 µM [1] was 86.7%, the viability at 100 µM [1] was 83.4% and the viability at 200 µM [1] was 80.2%. It also gave a viability at 300 µM [1] of 75.6%, a viability at 500 µM [1] of 64.1% and a viability at 10 µM [2] of 110%. The viability at 20 µM [2] was 101%, the viability at 50 µM [2] was 110% and the viability at 100 µM [2] was 112%. For the same compound, the viability at 200 µM [2] was 120%, the viability at 300 µM [2] was 122% and the viability at 500 µM [2] was 127%. The viability at 10 µM (glioma (U-118 MG)) was 110%, the viability at 20 µM (glioma (U-118 MG)) was 110% and the viability at 50 µM (glioma (U-118 MG)) was 116%. For the same compound, the viability at 100 µM (glioma (U-118 MG)) was 111%, the viability at 200 µM (glioma (U-118 MG)) was 112% and the viability at 300 µM (glioma (U-118 MG)) was 109%. The viability at 500 µM (glioma (U-118 MG)) was 106%, the viability at 10 µM [3] was 102% and the viability at 20 µM [3] was 100%. It also gave a viability at 50 µM [3] of 103%, a viability at 100 µM [3] of 106% and a viability at 200 µM [3] of 106%. For the same compound, the viability at 300 µM [3] was 104%, the viability at 500 µM [3] was 104% and the viability at 10 µM [4] was 96.3%. For the same compound, the viability at 20 µM [4] was 100%, the viability at 50 µM [4] was 103% and the viability at 100 µM [4] was 95.7%. The viability at 200 µM [4] was 93.7%, the viability at 300 µM [4] was 90.6% and the viability at 500 µM [4] was 85.2%.
For `O=C1N=C(NC2CCCC2)SC1c1ccccc1` (stereo not drawn) [Compound 3f, 2-(cyclopentylamino)-5-phenylthiazol-4(5H)-one], the IC50 (11β-HSD1) was 1100 ± 80 nM, the inhibition at 10 µM (11β-HSD1) was 64.3 ± 5.07% and the inhibition at 10 µM (11β-HSD2) was 36.5 ± 3.07%. The viability at 10 µM (BJ cells) was 107%, the viability at 20 µM (BJ cells) was 102% and the viability at 50 µM (BJ cells) was 102%. For the same compound, the viability at 100 µM (BJ cells) was 106%, the viability at 200 µM (BJ cells) was 105% and the viability at 300 µM (BJ cells) was 106%. The viability at 500 µM (BJ cells) was 96.8%, the viability at 10 µM [1] was 91.3% and the viability at 20 µM [1] was 90.4%. For the same compound, the viability at 50 µM [1] was 93.7%, the viability at 100 µM [1] was 87.4% and the viability at 200 µM [1] was 89.7%. The viability at 300 µM [1] was 87.1%, the viability at 500 µM [1] was 75.2% and the viability at 10 µM [2] was 110%. The viability at 20 µM [2] was 102%, the viability at 50 µM [2] was 117% and the viability at 100 µM [2] was 117%. It also gave a viability at 200 µM [2] of 137%, a viability at 300 µM [2] of 141% and a viability at 500 µM [2] of 141%. For the same compound, the “highest increase in proliferation (cell metabolic activity)” value ([2]; PANC-1, 72 h, range given for the named substances together) was 115 to 144%, the viability at 10 µM (glioma (U-118 MG)) was 116% and the viability at 20 µM (glioma (U-118 MG)) was 114%. The viability at 50 µM (glioma (U-118 MG)) was 114%, the viability at 100 µM (glioma (U-118 MG)) was 115% and the viability at 200 µM (glioma (U-118 MG)) was 110%. For the same compound, the viability at 300 µM (glioma (U-118 MG)) was 106%, the viability at 500 µM (glioma (U-118 MG)) was 86.8% and the “highest increase in proliferation (cell metabolic activity)” value (glioma (U-118 MG); U-118 MG, range given for the named substances together) was 115 to 144%. It also gave a viability at 10 µM [3] of 96.1%, a viability at 20 µM [3] of 98.2% and a viability at 50 µM [3] of 99.7%. The viability at 100 µM [3] was 100%, the viability at 200 µM [3] was 93.8% and the viability at 300 µM [3] was 73.2%. For the same compound, the viability at 500 µM [3] was 50%, the “cell viability, decreases to” value ([3]; SK-MEL-30, higher concentrations, range given for the most effective substances together) was 20–65% and the viability at 10 µM [4] was 96.2%. For the same compound, the viability at 20 µM [4] was 100%, the viability at 50 µM [4] was 95.3% and the viability at 100 µM [4] was 95.9%. The viability at 200 µM [4] was 87.8%, the viability at 300 µM [4] was 79.1% and the viability at 500 µM [4] was 78.2%.
